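The compound was tested at five concentrations on cells cultured in 96-well plates, with a 48-hour exposure period. GI50 = concentration required for 50% inhibition of growth. TGI is the concentration that stops growth completely.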
What was measured:
Test in all cases: DTP human tumour cell line panel, 48 h
A498 renal = system: A498 renal
TK-10 renal = system: TK-10 renal
HT29 colon = system: HT29 colon
SF-539 CNS = system: SF-539 CNS
LOX IMVI melanoma = system: LOX IMVI melanoma
SR leukemia = system: SR leukemia
OVCAR-8 ovarian = system: OVCAR-8 ovarian
UACC-62 melanoma = system: UACC-62 melanoma
SN12C renal = system: SN12C renal
MOLT-4 leukemia = system: MOLT-4 leukemia
SW-620 colon = system: SW-620 colon
CAKI-1 renal = system: CAKI-1 renal
EKVX NSCLC = system: EKVX NSCLC
SK-MEL-5 melanoma = system: SK-MEL-5 melanoma
OVCAR-4 ovarian = system: OVCAR-4 ovarian
PC-3 prostate = system: PC-3 prostate
HCT-15 colon = system: HCT-15 colon
OVCAR-5 ovarian = system: OVCAR-5 ovarian
NCI-H460 lung = system: NCI-H460 lung
NCI-H226 lung = system: NCI-H226 lung
786-0 renal = system: 786-0 renal
HOP-62 NSCLC = system: HOP-62 NSCLC
MDA-MB-435 = system: MDA-MB-435
KM12 colon = system: KM12 colon
DU-145 prostate = system: DU-145 prostate
HCC-2998 colon = system: HCC-2998 colon
CCRF-CEM leukemia = system: CCRF-CEM leukemia
RPMI-8226 leukemia = system: RPMI-8226 leukemia
U251 CNS = system: U251 CNS

## C#CCn1cccc1CNc1ccc(OC)cc1
A498 renal
  GI50: 8.54 µM
  TGI: > 100 µM
TK-10 renal
  GI50: > 100 µM
  TGI: > 100 µM
HT29 colon
  GI50: > 100 µM
  TGI: > 100 µM
SF-539 CNS
  GI50: > 100 µM
  TGI: > 100 µM
LOX IMVI melanoma
  GI50: 56.9 µM
  TGI: > 100 µM
SR leukemia
  GI50: > 100 µM
  TGI: > 100 µM
OVCAR-8 ovarian
  GI50: > 100 µM
  TGI: > 100 µM
UACC-62 melanoma
  GI50: 74.1 µM
  TGI: > 100 µM
SN12C renal
  GI50: > 100 µM
  TGI: > 100 µM
MOLT-4 leukemia
  GI50: > 100 µM
  TGI: > 100 µM
SW-620 colon
  GI50: > 100 µM
  TGI: > 100 µM
CAKI-1 renal
  GI50: 50 µM
  TGI: > 100 µM
EKVX NSCLC
  GI50: 25.5 µM
  TGI: > 100 µM
SK-MEL-5 melanoma
  GI50: 67.8 µM
  TGI: > 100 µM
OVCAR-4 ovarian
  GI50: 28.7 µM
  TGI: > 100 µM
PC-3 prostate
  GI50: 16 µM
  TGI: > 100 µM
HCT-15 colon
  GI50: > 100 µM
  TGI: > 100 µM
OVCAR-5 ovarian
  GI50: > 100 µM
  TGI: > 100 µM
NCI-H460 lung
  GI50: > 100 µM
  TGI: > 100 µM
NCI-H226 lung
  GI50: > 100 µM
  TGI: > 100 µM
786-0 renal
  GI50: > 100 µM
  TGI: > 100 µM
HOP-62 NSCLC
  GI50: > 100 µM
  TGI: > 100 µM
MDA-MB-435
  GI50: 78.9 µM
  TGI: > 100 µM
KM12 colon
  GI50: 51.7 µM
  TGI: > 100 µM
DU-145 prostate
  GI50: > 100 µM
  TGI: > 100 µM
HCC-2998 colon
  GI50: > 100 µM
  TGI: > 100 µM
CCRF-CEM leukemia
  GI50: 41 µM
  TGI: > 100 µM
RPMI-8226 leukemia
  GI50: 25 µM
  TGI: > 100 µM
U251 CNS
  GI50: > 100 µM
  TGI: > 100 µM

— PubChem BioAssay (NCI)
